Data published in ChEMBL document CHEMBL1275504, “Detection of macrolide resistance in Mycoplasma pneumoniae by real-time PCR and high-resolution melt analysis” (2008).
≈ marks a conversion by molar mass, not a printed value.

Columns and labels:
Assay type in all cases: functional
[1] = tested on: Mycoplasmoides pneumoniae; test: Antimicrobial activity against Mycoplasma pneumoniae isolate M129 by agar dilution method
[2] = tested on: Mycoplasmoides pneumoniae; test: Antimicrobial activity against Mycoplasma pneumoniae isolate FH by agar dilution method
[3] = tested on: Mycoplasmoides pneumoniae; test: Antimicrobial activity against macrolide-resistant Mycoplasma pneumoniae isolate 6 with A2604G mutation by agar dilution method
[4] = tested on: Mycoplasmoides pneumoniae; test: Antimicrobial activity against macrolide-resistant Mycoplasma pneumoniae isolate 11 with A2604G mutation by agar dilution method
[5] = tested on: Mycoplasmoides pneumoniae; test: Antimicrobial activity against macrolide-resistant Mycoplasma pneumoniae isolate 2p with A2604G mutation by agar dilution method
[6] = tested on: Mycoplasmoides pneumoniae; test: Antimicrobial activity against Mycoplasma pneumoniae isolate 18 by agar dilution method
[7] = tested on: Mycoplasmoides pneumoniae; test: Antimicrobial activity against Mycoplasma pneumoniae isolate 19 by agar dilution method
[8] = tested on: Mycoplasmoides pneumoniae; test: Antimicrobial activity against macrolide-resistant Mycoplasma pneumoniae isolate 685 with A2603G mutation by agar dilution method
[9] = tested on: Mycoplasmoides pneumoniae; test: Antimicrobial activity against macrolide-resistant Mycoplasma pneumoniae isolate 1006 with A2603G mutation by agar dilution method

Structure (SMILES) | MIC [1] | MIC [2] | MIC [3] | MIC [4] | MIC [5] | MIC [6] | MIC [7] | MIC [8] | MIC [9]
CC[C@H]1OC(=O)[C@H](C)[C@@H](O[C@H]2C[C@@](C)(OC)[C@@H](O)[C@H](C)O2)[C@H](C)[C@@H](O[C@@H]2O[C@H](C)C[C@H](N(C)C)[C@H]2O)[C@](C)(O)C[C@@H](C)C(=O)[C@H](C)[C@@H](O)[C@]1(C)O [ERYTHROMYCIN] | 0.063 µg/mL (≈ 0.0858 µM) | 0.063 µg/mL (≈ 0.0858 µM) | 128 µg/mL (≈ 174 µM) | 128 µg/mL (≈ 174 µM) | 128 µg/mL (≈ 174 µM) | 0.063 µg/mL (≈ 0.0858 µM) | 0.063 µg/mL (≈ 0.0858 µM) | 128 µg/mL (≈ 174 µM) | 128 µg/mL (≈ 174 µM)
CN(C)[C@@H]1C(O)=C(C(N)=O)C(=O)[C@@]2(O)C(O)=C3C(=O)c4c(O)cccc4[C@@](C)(O)[C@H]3C[C@@H]12 [TETRACYCLINE] | 0.25 µg/mL (≈ 0.563 µM) | 0.25 µg/mL (≈ 0.563 µM) | 0.25 µg/mL (≈ 0.563 µM) | 0.25 µg/mL (≈ 0.563 µM) | 0.25 µg/mL (≈ 0.563 µM) | 0.125 µg/mL (≈ 0.281 µM) | 0.25 µg/mL (≈ 0.563 µM) | 0.25 µg/mL (≈ 0.563 µM) | 0.125 µg/mL (≈ 0.281 µM)
CN(C)c1ccc(O)c2c1C[C@H]1C[C@H]3[C@H](N(C)C)C(O)=C(C(N)=O)C(=O)[C@@]3(O)C(O)=C1C2=O [MINOCYCLINE] | 0.25 µg/mL (≈ 0.546 µM) | 0.25 µg/mL (≈ 0.546 µM) | 0.125 µg/mL (≈ 0.273 µM) | 0.125 µg/mL (≈ 0.273 µM) | 0.25 µg/mL (≈ 0.546 µM) | 0.125 µg/mL (≈ 0.273 µM) | 0.125 µg/mL (≈ 0.273 µM) | 0.125 µg/mL (≈ 0.273 µM) | 0.125 µg/mL (≈ 0.273 µM)
